# Reference: PubChem BioAssay AID266 (DTP/NCI, 2004)
# Results filed as inconclusive are left out.
# System: Nude mice, LX-1 lung xenograft intrarenal, tumor weight T/C
# Assay: NCI In Vivo Anticancer Drug Screen. Data for tumor model Human Lung LX-1 Xenograft (intrarenal inoculation) in NU/NU BALB/C (nude) mice
# Settings: endpoint: mean tumor weight change, higher = larger tumour
# Procedure: The antitumor activity of compounds was measured in mice bearing transplantable tumors. Survival or tumor size were measured and the results are expressed as the measurement made in the treated group (T) divided by the measurement made in the vehicle treated control group (C). The tumor model used in this assay is Human Lung LX-1 Xenograft (intrarenal inoculation) in NU/NU BALB/C (nude) mice
# [1] = dose: 300.0 mg/kg/injection, schedule: Q04DX003 (sc), vehicle: saline with Tween-80
# [2] = dose: 1200.0 mg/kg/injection, schedule: Q04DX003 (sc), vehicle: saline with Tween-80
# [3] = dose: 300.0 mg/kg/injection, schedule: Q04DX003 (sc), vehicle: Klucel (hydroxypropylcellulose) (HPC)
# [4] = dose: 600.0 mg/kg/injection, schedule: Q04DX003 (sc), vehicle: Klucel (hydroxypropylcellulose) (HPC)
smiles,measurement,setting,value
CN1C(=O)C(=Cc2ccc(O)cc2)C(=O)N(C)C1=O,T/C,[1],114 % of control
same,T/C,"dose: 600.0 mg/kg/injection, schedule: Q04DX003 (sc), vehicle: saline with Tween-80",110 % of control
same,T/C,[2],87 % of control
same,T/C,"dose: 2400.0 mg/kg/injection, schedule: Q04DX003 (sc), vehicle: saline with Tween-80",68 % of control
N=[N+]=CC(=O)CCC(NC(=O)C(CCC(=O)C=[N+]=N)NC(=O)CCC(N)C(=O)O)C(=O)O (configuration not stated),T/C,"dose: 0.2 mg/kg/injection, schedule: Q02DX005 (sc), vehicle: water",114 % of control
same,T/C,"dose: 0.4 mg/kg/injection, schedule: Q02DX005 (sc), vehicle: water",73 % of control
same,T/C,"dose: 0.8 mg/kg/injection, schedule: Q02DX005 (sc), vehicle: water",26 % of control
same,T/C,"dose: 1.6 mg/kg/injection, schedule: Q02DX005 (sc), vehicle: water",74 % of control
same,T/C,"dose: 3.2 mg/kg/injection, schedule: Q02DX005 (sc), vehicle: water",65 % of control
same,T/C,"dose: 6.4 mg/kg/injection, schedule: Q02DX005 (sc), vehicle: water",41 % of control
O=C1N[C@H]2[C@H](CS[C@H]2CCCCC(=O)N(CCP(c2ccccc2)c2ccccc2)CCP(c2ccccc2)c2ccccc2)N1,T/C,[3],84 % of control
same,T/C,[4],64 % of control
same,T/C,"dose: 1200.0 mg/kg/injection, schedule: Q04DX003 (sc), vehicle: Klucel (hydroxypropylcellulose) (HPC)",87 % of control
same,T/C,"dose: 2400.0 mg/kg/injection, schedule: Q04DX003 (sc), vehicle: Klucel (hydroxypropylcellulose) (HPC)",71 % of control
CCNC(C)(C)C(SSS)c1ccco1 (configuration not stated),T/C,"dose: 150.0 mg/kg/injection, schedule: Q04DX003 (sc), vehicle: Klucel (hydroxypropylcellulose) (HPC)",82 % of control
same,T/C,[3],84 % of control
same,T/C,[4],76 % of control
COC(=O)c1ccc(N=NN(C)COC(C)=O)cc1,T/C,"dose: 155.52 mg/kg/injection, schedule: Q04DX003 (ip), vehicle: Klucel (hydroxypropylcellulose) (HPC)",78 % of control
same,T/C,"dose: 259.2 mg/kg/injection, schedule: Q04DX003 (ip), vehicle: Klucel (hydroxypropylcellulose) (HPC)",47 % of control
same,T/C,"dose: 432.0 mg/kg/injection, schedule: Q04DX003 (ip), vehicle: Klucel (hydroxypropylcellulose) (HPC)",60 % of control
same,T/C,"dose: 720.0 mg/kg/injection, schedule: Q04DX003 (ip), vehicle: Klucel (hydroxypropylcellulose) (HPC)",64 % of control
O=NN(CCCl)C(=O)NC1OC(CO)C(O)C(O)C1O (configuration not stated),T/C,"dose: 5.0 mg/kg/injection, schedule: Q04DX003 (sc), vehicle: saline",86 % of control
same,T/C,"dose: 10.0 mg/kg/injection, schedule: Q04DX003 (sc), vehicle: saline",55 % of control
same,T/C,"dose: 20.0 mg/kg/injection, schedule: Q04DX003 (sc), vehicle: saline",66 % of control
C1CN1c1nc(N2CC2)nc(N2CC2)n1,T/C,"dose: 0.25 mg/kg/injection, schedule: Q01DX010 (sc), vehicle: saline",34 % of control
same,T/C,"dose: 0.5 mg/kg/injection, schedule: Q01DX010 (sc), vehicle: saline",45 % of control
C[C@]12C=CC(=O)C=C1CC[C@@H]1[C@@H]2[C@@H](O)C[C@@]2(C)[C@H]1CC[C@]2(O)C(=O)CO,T/C,"dose: 50.0 mg/kg/injection, schedule: Q01DX010 (sc), vehicle: Klucel (hydroxypropylcellulose) (HPC)",63 % of control
CCC(C(=O)O)C(=O)O.[NH-]CC1CCCC[N-]1.[Pt+2],T/C,"dose: 100.0 mg/kg/injection, schedule: Q04DX003 (sc), vehicle: saline",114 % of control
same,T/C,"dose: 200.0 mg/kg/injection, schedule: Q04DX003 (sc), vehicle: saline",90 % of control
same,T/C,"dose: 400.0 mg/kg/injection, schedule: Q04DX003 (sc), vehicle: saline",60 % of control
CC(C)C(N)C(=O)Nc1nncs1 (configuration not stated),T/C,"dose: 150.0 mg/kg/injection, schedule: Q04DX003 (sc), vehicle: saline",102 % of control
same,T/C,"dose: 300.0 mg/kg/injection, schedule: Q04DX003 (sc), vehicle: saline",74 % of control
same,T/C,"dose: 600.0 mg/kg/injection, schedule: Q04DX003 (sc), vehicle: saline",78 % of control
C/C(=N\NC(=S)N1CCN(c2ccccn2)CC1)c1ccccn1,T/C,"dose: 37.5 mg/kg/injection, schedule: Q04DX003 (sc), vehicle: water",106 % of control
same,T/C,"dose: 75.0 mg/kg/injection, schedule: Q04DX003 (sc), vehicle: water",102 % of control
CC(=O)OCC1(C)NC(=O)c2ccccc2O1 (configuration not stated),T/C,[1],86 % of control
same,T/C,[2],91 % of control
